Measured values published in patent publication US12157741B2, “Macrocyclic inhibitors of DYRK1A” (DANA-FARBER CANCER INSTITUTE, INC., priority 2018, dated 2024).
Where two headings read alike, the source gives them in different places.

Experiments:
Format in all cases: binding
[1] = molecular target: various enzymes (Homo sapiens, UniProt P50613); details: compound 1 uM
Procedure: (§1) Ambit profiling was conducted in accordance with the manufacturer's instructions.

[2] = molecular target: various enzymes (Homo sapiens, UniProt Q00526); details: compound 1 uM
Procedure: as §1

[3] = molecular target: various enzymes (Homo sapiens, UniProt Q86Y07); details: compound 1 uM
Procedure: as §1

[4] = molecular target: various enzymes (Homo sapiens, UniProt Q00535); details: compound 1 uM
Procedure: as §1

[5] = molecular target: various enzymes (Homo sapiens, UniProt Q8NG66); details: compound 1 uM
Procedure: as §1

[6] = molecular target: various enzymes (Homo sapiens, UniProt Q8NI60); details: compound 1 uM
Procedure: as §1

[7] = molecular target: various enzymes (Homo sapiens, UniProt O95819); details: compound 1 uM
Procedure: as §1

[8] = molecular target: various enzymes (Homo sapiens, UniProt P42336, Q546K)
Procedure: as §1

[9] = molecular target: various enzymes (Homo sapiens, UniProt P07949, M918T)
Procedure: as §1

[10] = molecular target: various enzymes (Homo sapiens, UniProt O75716); details: compound 1 uM
Procedure: as §1

[11] = molecular target: various enzymes (Homo sapiens, UniProt Q8IVW4); details: compound 1 uM
Procedure: as §1

[12] = molecular target: various enzymes (Homo sapiens, UniProt Q14004); details: compound 1 uM
Procedure: as §1

[13] = molecular target: various enzymes (Homo sapiens, UniProt Q7KZI7); details: compound 1 uM
Procedure: as §1

[14] = molecular target: various enzymes (Homo sapiens, UniProt O43683); details: compound 1 uM
Procedure: as §1

[15] = molecular target: T1, various enzymes (Homo sapiens, UniProt Q9NWZ3); details: compound 1 uM
T1 sequence (Q9NWZ3 1-460): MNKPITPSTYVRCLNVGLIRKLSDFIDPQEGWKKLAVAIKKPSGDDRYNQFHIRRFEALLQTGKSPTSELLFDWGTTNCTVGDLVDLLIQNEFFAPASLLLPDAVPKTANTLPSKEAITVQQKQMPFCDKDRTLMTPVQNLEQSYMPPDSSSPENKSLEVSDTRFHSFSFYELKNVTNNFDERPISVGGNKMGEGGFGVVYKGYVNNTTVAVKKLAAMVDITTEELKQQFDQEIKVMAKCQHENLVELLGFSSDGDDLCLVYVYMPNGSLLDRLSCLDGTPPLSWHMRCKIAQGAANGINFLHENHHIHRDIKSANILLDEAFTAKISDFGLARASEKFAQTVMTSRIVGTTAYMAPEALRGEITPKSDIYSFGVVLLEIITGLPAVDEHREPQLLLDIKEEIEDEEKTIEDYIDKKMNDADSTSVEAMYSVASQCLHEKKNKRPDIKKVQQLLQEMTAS
Procedure: as §1

[16] = molecular target: various enzymes (Homo sapiens, UniProt Q13976); details: compound 1 uM
Procedure: as §1

[17] = molecular target: various enzymes (Homo sapiens, UniProt P10721); details: compound 1 uM
Procedure: as §1

[18] = molecular target: various enzymes (Homo sapiens, UniProt P29376); details: compound 1 uM
Procedure: as §1

[19] = molecular target: various enzymes (Homo sapiens, UniProt Q9UBF8); details: compound 1 uM
Procedure: as §1

[20] = molecular target: various enzymes (Homo sapiens, UniProt Q13464); details: compound 1 uM
Procedure: as §1

[21] = molecular target: various enzymes (Homo sapiens, UniProt P00533, L858R/T790M)
Procedure: as §1

[22] = molecular target: various enzymes (Homo sapiens, UniProt P00533); details: compound 1 uM
Procedure: as §1

[23] = molecular target: various enzymes (Homo sapiens, UniProt P12931); details: compound 1 uM
Procedure: as §1

[24] = molecular target: various enzymes (Homo sapiens, UniProt Q9HCP0); details: compound 1 uM
Procedure: as §1

[25] = molecular target: various enzymes (Homo sapiens, UniProt O00329); details: compound 1 uM
Procedure: as §1

[26] = molecular target: various enzymes (Homo sapiens, UniProt Q96GD4); details: compound 1 uM
Procedure: as §1

[27] = molecular target: various enzymes (Homo sapiens, UniProt P49840); details: compound 1 uM
Procedure: as §1

[28] = molecular target: various enzymes (Homo sapiens, UniProt P29597); details: compound 1 uM
Procedure: as §1

[29] = molecular target: various enzymes (Homo sapiens, UniProt Q32MK0); details: compound 1 uM
Procedure: as §1

[30] = molecular target: various enzymes (Homo sapiens, UniProt P35590); details: compound 1 uM
Procedure: as §1

[31] = molecular target: various enzymes (Homo sapiens, UniProt Q92630); details: compound 1 uM
Procedure: as §1

[32] = molecular target: various enzymes (Homo sapiens, UniProt P53667); details: compound 1 uM
Procedure: as §1

[33] = molecular target: various enzymes (Homo sapiens, UniProt P00533, G719S)
Procedure: as §1

[34] = molecular target: various enzymes (Homo sapiens, UniProt Q9BYP7); details: compound 1 uM
Procedure: as §1

Chain of various enzymes (Homo sapiens, UniProt P29597) (P29597 whole entry): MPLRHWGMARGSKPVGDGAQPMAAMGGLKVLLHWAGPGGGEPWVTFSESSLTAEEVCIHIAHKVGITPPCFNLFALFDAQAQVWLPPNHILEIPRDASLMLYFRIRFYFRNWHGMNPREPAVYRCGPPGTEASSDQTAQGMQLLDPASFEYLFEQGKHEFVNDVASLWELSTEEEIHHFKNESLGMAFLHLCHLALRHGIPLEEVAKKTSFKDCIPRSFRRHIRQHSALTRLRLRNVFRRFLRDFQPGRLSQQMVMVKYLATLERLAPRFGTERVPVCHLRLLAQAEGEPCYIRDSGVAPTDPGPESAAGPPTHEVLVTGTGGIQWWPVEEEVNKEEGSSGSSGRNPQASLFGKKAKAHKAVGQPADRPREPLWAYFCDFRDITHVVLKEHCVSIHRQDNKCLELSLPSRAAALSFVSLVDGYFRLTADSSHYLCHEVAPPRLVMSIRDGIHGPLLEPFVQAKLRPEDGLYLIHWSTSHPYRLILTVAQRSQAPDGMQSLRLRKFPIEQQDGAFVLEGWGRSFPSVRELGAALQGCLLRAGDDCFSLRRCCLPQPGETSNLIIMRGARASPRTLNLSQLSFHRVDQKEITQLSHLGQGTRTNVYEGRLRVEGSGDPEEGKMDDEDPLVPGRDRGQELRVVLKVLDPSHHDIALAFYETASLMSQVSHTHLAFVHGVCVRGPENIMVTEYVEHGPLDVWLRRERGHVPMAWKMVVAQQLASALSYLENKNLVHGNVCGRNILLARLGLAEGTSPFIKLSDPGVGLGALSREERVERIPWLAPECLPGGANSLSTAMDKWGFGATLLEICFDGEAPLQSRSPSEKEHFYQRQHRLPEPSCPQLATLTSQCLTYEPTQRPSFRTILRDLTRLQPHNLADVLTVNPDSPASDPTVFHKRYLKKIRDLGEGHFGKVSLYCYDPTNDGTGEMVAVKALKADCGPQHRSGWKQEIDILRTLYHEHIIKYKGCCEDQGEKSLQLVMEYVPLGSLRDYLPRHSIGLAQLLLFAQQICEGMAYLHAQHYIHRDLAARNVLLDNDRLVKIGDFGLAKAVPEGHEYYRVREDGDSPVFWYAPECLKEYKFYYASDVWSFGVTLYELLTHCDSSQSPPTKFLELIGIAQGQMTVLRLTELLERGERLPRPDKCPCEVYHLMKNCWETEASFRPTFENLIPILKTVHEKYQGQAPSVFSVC
Chain of various enzymes (Homo sapiens, UniProt P10721) (P10721 26-976): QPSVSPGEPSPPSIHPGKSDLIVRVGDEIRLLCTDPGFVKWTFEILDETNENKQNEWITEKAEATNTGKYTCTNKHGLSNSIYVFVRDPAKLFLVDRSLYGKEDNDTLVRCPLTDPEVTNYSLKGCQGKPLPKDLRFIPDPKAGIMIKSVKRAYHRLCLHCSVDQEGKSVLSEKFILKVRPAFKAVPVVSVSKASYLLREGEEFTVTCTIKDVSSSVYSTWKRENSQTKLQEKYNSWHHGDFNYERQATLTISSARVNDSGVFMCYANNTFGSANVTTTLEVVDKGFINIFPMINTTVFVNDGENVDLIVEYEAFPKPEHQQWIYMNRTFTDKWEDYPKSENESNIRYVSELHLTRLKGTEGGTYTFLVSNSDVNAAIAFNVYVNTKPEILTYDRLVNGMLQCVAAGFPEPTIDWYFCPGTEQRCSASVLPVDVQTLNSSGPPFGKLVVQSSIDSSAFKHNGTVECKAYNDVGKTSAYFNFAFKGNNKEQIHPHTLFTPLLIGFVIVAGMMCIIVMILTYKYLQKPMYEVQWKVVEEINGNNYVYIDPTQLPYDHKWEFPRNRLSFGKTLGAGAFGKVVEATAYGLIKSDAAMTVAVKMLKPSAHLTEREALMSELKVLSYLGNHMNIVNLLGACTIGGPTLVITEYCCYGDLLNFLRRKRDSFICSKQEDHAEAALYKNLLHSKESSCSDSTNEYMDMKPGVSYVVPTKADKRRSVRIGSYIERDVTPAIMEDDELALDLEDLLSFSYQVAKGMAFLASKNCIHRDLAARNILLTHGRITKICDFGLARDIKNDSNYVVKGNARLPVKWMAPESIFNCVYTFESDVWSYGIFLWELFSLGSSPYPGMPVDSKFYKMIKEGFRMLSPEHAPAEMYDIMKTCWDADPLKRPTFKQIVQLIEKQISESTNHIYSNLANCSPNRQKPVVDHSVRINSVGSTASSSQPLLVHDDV
Chain of various enzymes (Homo sapiens, UniProt O00329) (O00329 whole entry): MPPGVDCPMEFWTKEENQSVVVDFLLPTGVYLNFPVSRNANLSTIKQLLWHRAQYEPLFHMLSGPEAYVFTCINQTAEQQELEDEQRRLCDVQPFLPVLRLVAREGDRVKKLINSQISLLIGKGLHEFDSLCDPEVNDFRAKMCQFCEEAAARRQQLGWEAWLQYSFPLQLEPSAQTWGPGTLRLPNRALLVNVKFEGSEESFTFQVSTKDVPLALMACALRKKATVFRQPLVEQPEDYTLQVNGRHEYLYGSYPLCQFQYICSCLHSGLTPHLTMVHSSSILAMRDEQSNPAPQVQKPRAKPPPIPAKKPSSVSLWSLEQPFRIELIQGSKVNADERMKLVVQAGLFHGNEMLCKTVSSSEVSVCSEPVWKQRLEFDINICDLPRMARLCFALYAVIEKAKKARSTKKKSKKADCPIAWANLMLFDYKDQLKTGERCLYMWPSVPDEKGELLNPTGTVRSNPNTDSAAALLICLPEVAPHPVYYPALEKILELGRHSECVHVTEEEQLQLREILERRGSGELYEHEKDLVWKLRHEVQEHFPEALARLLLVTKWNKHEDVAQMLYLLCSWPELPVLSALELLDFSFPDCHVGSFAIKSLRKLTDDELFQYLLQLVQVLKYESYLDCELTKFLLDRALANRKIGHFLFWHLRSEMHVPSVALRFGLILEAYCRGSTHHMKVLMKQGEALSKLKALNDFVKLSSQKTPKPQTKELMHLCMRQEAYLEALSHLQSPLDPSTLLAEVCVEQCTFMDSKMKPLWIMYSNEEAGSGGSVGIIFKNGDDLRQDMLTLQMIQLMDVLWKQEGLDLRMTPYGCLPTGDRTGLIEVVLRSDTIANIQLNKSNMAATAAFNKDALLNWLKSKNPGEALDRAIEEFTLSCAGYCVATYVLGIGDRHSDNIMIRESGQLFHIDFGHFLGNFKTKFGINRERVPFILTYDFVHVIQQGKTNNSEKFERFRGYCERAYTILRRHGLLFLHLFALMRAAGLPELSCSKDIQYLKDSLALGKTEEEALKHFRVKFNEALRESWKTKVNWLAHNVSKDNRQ
Chain of various enzymes (Homo sapiens, UniProt P07949, M918T) (P07949 29-1114 M918T): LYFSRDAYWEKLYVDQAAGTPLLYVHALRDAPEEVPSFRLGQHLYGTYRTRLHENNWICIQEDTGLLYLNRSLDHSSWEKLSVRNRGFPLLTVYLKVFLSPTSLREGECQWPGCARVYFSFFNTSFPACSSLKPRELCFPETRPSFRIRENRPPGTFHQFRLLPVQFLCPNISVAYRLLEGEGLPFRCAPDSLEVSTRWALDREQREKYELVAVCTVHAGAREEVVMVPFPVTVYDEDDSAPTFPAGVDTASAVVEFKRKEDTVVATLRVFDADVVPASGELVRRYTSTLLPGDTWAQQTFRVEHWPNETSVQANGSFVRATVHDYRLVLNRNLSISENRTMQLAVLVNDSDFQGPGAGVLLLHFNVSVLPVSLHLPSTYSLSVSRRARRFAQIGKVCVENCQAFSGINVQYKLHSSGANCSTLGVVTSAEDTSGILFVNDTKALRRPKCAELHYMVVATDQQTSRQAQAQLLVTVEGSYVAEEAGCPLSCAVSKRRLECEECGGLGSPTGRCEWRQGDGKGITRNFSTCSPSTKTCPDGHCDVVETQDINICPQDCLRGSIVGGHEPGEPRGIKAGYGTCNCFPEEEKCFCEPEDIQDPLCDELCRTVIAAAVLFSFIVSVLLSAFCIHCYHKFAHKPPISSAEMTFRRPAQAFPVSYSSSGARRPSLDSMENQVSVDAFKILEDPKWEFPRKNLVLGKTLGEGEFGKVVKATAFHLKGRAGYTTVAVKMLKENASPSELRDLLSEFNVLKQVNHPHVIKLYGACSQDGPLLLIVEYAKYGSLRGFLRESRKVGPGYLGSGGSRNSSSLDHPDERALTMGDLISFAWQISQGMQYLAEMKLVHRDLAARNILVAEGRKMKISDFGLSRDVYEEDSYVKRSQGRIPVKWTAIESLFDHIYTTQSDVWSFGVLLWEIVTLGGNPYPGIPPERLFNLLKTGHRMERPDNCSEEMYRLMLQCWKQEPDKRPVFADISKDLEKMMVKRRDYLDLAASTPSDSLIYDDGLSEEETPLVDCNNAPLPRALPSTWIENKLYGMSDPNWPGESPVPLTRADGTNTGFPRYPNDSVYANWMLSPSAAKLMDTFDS
Chain of various enzymes (Homo sapiens, UniProt Q96GD4) (Q96GD4 whole entry): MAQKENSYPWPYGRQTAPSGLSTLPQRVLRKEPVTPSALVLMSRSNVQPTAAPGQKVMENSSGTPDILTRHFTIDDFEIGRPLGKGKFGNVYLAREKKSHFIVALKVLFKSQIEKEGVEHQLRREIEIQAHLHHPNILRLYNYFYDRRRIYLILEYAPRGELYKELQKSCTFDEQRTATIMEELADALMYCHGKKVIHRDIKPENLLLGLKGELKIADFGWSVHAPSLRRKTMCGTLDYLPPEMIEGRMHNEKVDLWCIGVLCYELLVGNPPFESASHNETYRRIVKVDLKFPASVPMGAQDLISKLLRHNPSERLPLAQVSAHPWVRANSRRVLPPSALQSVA
Chain of various enzymes (Homo sapiens, UniProt O75716) (O75716 whole entry): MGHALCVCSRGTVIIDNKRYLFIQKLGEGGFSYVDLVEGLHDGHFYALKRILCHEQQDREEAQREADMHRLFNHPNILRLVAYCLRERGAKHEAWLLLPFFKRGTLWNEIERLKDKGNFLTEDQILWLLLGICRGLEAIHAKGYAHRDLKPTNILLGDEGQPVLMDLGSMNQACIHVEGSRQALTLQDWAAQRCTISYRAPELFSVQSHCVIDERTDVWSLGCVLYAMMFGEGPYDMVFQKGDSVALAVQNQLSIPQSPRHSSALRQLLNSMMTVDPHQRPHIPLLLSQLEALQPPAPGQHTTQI

| Compound | Ambit profiling: CDK7 [1] | Ambit profiling: CDK3 [2] | Ambit profiling: VRK2 [3] | Ambit profiling: CDK5 [4] | Ambit profiling: NEK11 [5] | Ambit profiling: ADCK3 [6] | Ambit profiling: MAP4K4 [7] | Ambit profiling: STK16 [10] | Ambit profiling: CDKL3 [11] | Ambit profiling: CDC2L5 [12] | Ambit profiling: MARK2 [13] | Ambit profiling: BUB1 [14] | Ambit profiling: IRAK4 [15] | Ambit profiling: PRKG1 [16] | Ambit profiling: KIT [17] | Ambit profiling: KIT-autoinhibited [17] | Ambit profiling: LTK [18] | Ambit profiling: PIK4CB [19] | Ambit profiling: ROCK1 [20] | Ambit profiling: EGFR [22] | other results |
| --- | --- | --- | --- | --- | --- | --- | --- | --- | --- | --- | --- | --- | --- | --- | --- | --- | --- | --- | --- | --- | --- |
| CC(C)N1Cc2nn(C)cc2-c2cnc3[nH]cc(c3c2)-c2cn(nc2C(F)(F)F)CCCC1=O [Compound 45, (Z)-5-isopropyl-31-methyl-13-(trifluoromethyl)-11H,21H,31H-5-aza-2(3,5)-pyrrolo[2,3-b]pyridina-1(4,1),3(4,3)-dipyrazolacyclononaphan-6-one] | 13 | 33 | 37 | 86 | 100 | 100 | 3.5 | 1.9 | 100 | 99 | 48 | 81 | 39 | 100 | 6.5 | 69 | 18 | 99 | 95 | 29 | Ambit profiling: PIK3CA(Q546K) ([8]; compound 1 uM): 100; Ambit profiling: RET(M918T) ([9]; compound 1 uM): 0.2; Ambit profiling: EGFR(L858R, T790M) ([21]; compound 1 uM): 27; Ambit profiling: SRC [23]: 25; Ambit profiling: CSNK1G1 [24]: 100; Ambit profiling: PIK3CD [25]: 92; Ambit profiling: AURKB [26]: 5.7; Ambit profiling: GSK3A [27]: 17; Ambit profiling: TYK2(JH1domain-catalytic) [28]: 19; Ambit profiling: TYK2(JH2domain-pseudokinase) [28]: 100; Ambit profiling: MLCK [29]: 99; Ambit profiling: TIE1 [30]: 7.2; Ambit profiling: DYRK2 [31]: 25; Ambit profiling: LIMK1 [32]: 93; Ambit profiling: EGFR(G719S) ([33]; compound 1 uM): 41; Ambit profiling: WNK3 [34]: 100 |
| COc1c2c(nn1C)CN(C(C)C)C(=O)CCCn1cc(c(C(F)(F)F)n1)-c1c[nH]c3ncc-2cc13 [Compound 50, (Z)-5-isopropyl-35-methoxy-31-methyl-13-(trifluoromethyl)-11H,21H,31H-5-aza-2(3,5)-pyrrolo[2,3-b]pyridina-1(4,1),3(4,3)-dipyrazolacyclononaphan-6-one] | 6 | 78 | 20 | 89 | 94 | 73 | 3 | 12 | 80 | 89 | 100 | 35 | 20 | 100 | 2.9 | 76 | 8.7 | 31 | 79 | 27 | Ambit profiling: PIK3CA(Q546K) [8]: 86; Ambit profiling: RET(M918T) [9]: 0.25; Ambit profiling: EGFR(L858R, T790M) [21]: 19; Ambit profiling: SRC [23]: 13; Ambit profiling: CSNK1G1 [24]: 81; Ambit profiling: PIK3CD [25]: 94; Ambit profiling: AURKB [26]: 18; Ambit profiling: GSK3A [27]: 93; Ambit profiling: TYK2(JH1domain-catalytic) [28]: 19; Ambit profiling: TYK2(JH2domain-pseudokinase) [28]: 84; Ambit profiling: MLCK [29]: 82; Ambit profiling: TIE1 [30]: 9.2; Ambit profiling: DYRK2 [31]: 56; Ambit profiling: LIMK1 [32]: 91; Ambit profiling: EGFR(G719S) [33]: 41; Ambit profiling: WNK3 [34]: 100 |
